The experiment deals with C57BL/6J mice. Briefly: Estimation of urinary glucose in C57BL/6J mice. It counts as in vivo, mouse. Particulars: urine collected over 24 h. As to the method:
Estimation of Urinary Glucose in C57BL/6J Mice
C57BL/6J mice were fasted 4 h before drug treatment. Fasted mice were weighed and randomized into different groups based on their body weight (n=6). At time T0 test compounds and standard compounds suspended in 0.25% CMC or PEG 400 formulation, were administered to respective groups and kept in metabolic cages (6 mice/cage) after dosing. Animals were fed after drug administration and urine was collected over a period of 24 h. Urinary volume was measured and urinary glucose was estimated using Merckotest Glucose Reagent (Merck Specialities Pvt. Ltd., India).

Here are results for 2 compounds from US20140228303A1, “NOVEL SGLT INHIBITORS” (Panacea Biotec Ltd, priority 2011, published 2014).

In the case of “1-(4-(2-chloro-5-((1S,2S,3S,4R,5S)-2,3,4-trihydroxy-1-(hydroxymethyl)-6,8-dioxabicyclo[3.2.1]octan-5-yl)benzyl)phenyl)ethanone O-methyl oxime [Compound 4]”, the “UGE in mice (in mg/g of feed consumed) at 3 mpk” value is listed as 76.2 mg/g of feed consumed. For the compound `CCON=C(CC)c1ccc(Cc2cc([C@@H]3O[C@H](CO)[C@@H](O)[C@H](O)[C@H]3O)ccc2Cl)cc1` [Compound 17], the “UGE in mice (in mg/g of feed consumed) at 3 mpk” value was 64.5 mg/g of feed consumed.
